The test system of the assay is IL-13 induced pSTAT6 in BEAS-2B human cell line. Kind of assay: Inhibition of IL-13 induced pSTAT6 in BEAS. In kind it is cell-based. The conditions noted are these: IL-13 induced pSTAT6, BEAS-2B cells, ELISA. As to the method:
BEAS-2B human cell line was seeded (100.000 cells/well) and incubated for 48 h at 37° C., 5% CO2, 95% humidity. Compounds were added and incubated 30 min followed by IL-13 as trigger. After 30 min incubation, cells were lysed and pSTAT6 determined by Fastscan phospho-stat6 (Tyr641) sandwich ELISA kit (cell signaling). Inhibitors were tested at 11 consecutive […] dilutions starting from 10 μM (10 μM-40 pM) in duplicate. Calculation of IC50 data, curves and QC analysis were made using Excel tools and GraphPadPrism software. QC criteria parameters: Z′≥0.35, Hill Slope range 0.5 to 5, S:B>2.
A general note: In an ELISA, binding on a coated surface is turned into a signal by an enzyme label.

The values that follow come from patent US20260085077A1, “HETEROCYCLIC DERIVATIVES AS JANUS KINASE INHIBITORS” (CHIESI FARMACEUTICI S.P.A., priority 2022, published 2026).

By IC50 is commonly meant the midpoint of a concentration-inhibition curve. Lower therefore signals higher potency.

The molecule `COc1cc2c(cc1-n1nc(NC(=O)OCCN(C)C)c3cnc(-c4cnn5cccnc45)cc31)SCCN2` [Example 28, 2-(dimethylamino)ethyl (1-(6-methoxy-3,4-dihydro-2H-benzo[b][1,4]thiazin-7-yl)-6-(pyrazolo[1,5-a]pyrimidin-3-yl)-1H-pyrazolo[4,3-c]pyridin-3-yl)carbamate] had an IC50 of less than 5.01 nM.
For the molecule `COc1cc2c(cc1-n1nc(NC(=O)OCCN3CCOCC3)c3cnc(-c4cnn5cccnc45)cc31)SCCN2` [Example 29, 2-morpholinoethyl (1-(6-methoxy-3,4-dihydro-2H-benzo[b][1,4]thiazin-7-yl)-6-(pyrazolo[1,5-a]pyrimidin-3-yl)-1H-pyrazolo[4,3-c]pyridin-3-yl)carbamate], the IC50 is less than 5.01 nM.
`COc1cc2c(cc1-n1nc(NC(=O)OCCCN3CCN(C)CC3)c3cnc(-c4cnn5cccnc45)cc31)SCCN2` [Example 30, 3-(4-methylpiperazin-1-yl)propyl (1-(6-methoxy-3,4-dihydro-2H-benzo[b][1,4]thiazin-7-yl)-6-(pyrazolo[1,5-a]pyrimidin-3-yl)-1H-pyrazolo[4,3-c]pyridin-3-yl)carbamate] showed an IC50 of 5.01 to 50.1 nM.
Then `COc1cc2c(cc1-n1nc(NC(=O)OCCN3CCCCC3)c3cnc(-c4cnn5cccnc45)cc31)SCCN2` [Example 31, 2-(piperidin-1-yl)ethyl (1-(6-methoxy-3,4-dihydro-2H-benzo[b][1,4]thiazin-7-yl)-6-(pyrazolo[1,5-a]pyrimidin-3-yl)-1H-pyrazolo[4,3-c]pyridin-3-yl)carbamate], with 5.01 to 50.1 nM; and `COc1cc2c(cc1-n1nc(NC(=O)O[C@@H]3CCN(C)C3)c3cnc(-c4cnn5cccnc45)cc31)SCCN2` [Example 32, (R)-1-methylpyrrolidin-3-yl (1-(6-methoxy-3,4-dihydro-2H-benzo[b][1,4]thiazin-7-yl)-6-(pyrazolo[1,5-a]pyrimidin-3-yl)-1H-pyrazolo[4,3-c]pyridin-3-yl)carbamate], with 5.01 to 50.1 nM; and `COc1cc2c(cc1-n1nc(NC(=O)O[C@H]3CCN(C)C3)c3cnc(-c4cnn5cccnc45)cc31)SCCN2` [Example 33, (S)-1-methylpyrrolidin-3-yl (1-(6-methoxy-3,4-dihydro-2H-benzo[b][1,4]thiazin-7-yl)-6-(pyrazolo[1,5-a]pyrimidin-3-yl)-1H-pyrazolo[4,3-c]pyridin-3-yl)carbamate], with 5.01 to 50.1 nM.
In the case of `COc1cc2c(cc1-n1nc(NC(=O)OCC3(N(C)C)CCOCC3)c3cnc(-c4cnn5cccnc45)cc31)SCCN2` [Example 34, (4-(dimethylamino)tetrahydro-2H-pyran-4-yl)methyl (1-(6-methoxy-3,4-dihydro-2H-benzo[b][1,4]thiazin-7-yl)-6-(pyrazolo[1,5-a]pyrimidin-3-yl)-1H-pyrazolo[4,3-c]pyridin-3-yl)carbamate], the IC50 is 5.01 to 50.1 nM.
Under `COc1cc2c(cc1-n1nc(NC(=O)OCCN3CC[C@@H](OC)C3)c3cnc(-c4cnn5cccnc45)cc31)SCCN2` [Example 35, (R)-2-(3-methoxypyrrolidin-1-yl)ethyl (1-(6-methoxy-3,4-dihydro-2H-benzo[b][1,4]thiazin-7-yl)-6-(pyrazolo[1,5-a]pyrimidin-3-yl)-1H-pyrazolo[4,3-c]pyridin-3-yl)carbamate] stands 5.01 to 50.1 nM.
Under `COc1cc2c(cc1-n1nc(NC(=O)N(C)C)c3cnc(-c4cnn5cccnc45)cc31)SCCN2` [Example 36, 3-(1-(6-methoxy-3,4-dihydro-2H-benzo[b][1,4]thiazin-7-yl)-6-(pyrazolo[1,5-a]pyrimidin-3-yl)-1H-pyrazolo[4,3-c]pyridin-3-yl)-1,1-dimethylurea] stands less than 5.01 nM; under `COc1cc2c(cc1-n1nc(NCCN3CCN(C)CC3)c3cnc(-c4cnn5cccnc45)cc31)SCC(=O)N2` [Example 37], 5.01 to 50.1 nM.
The molecule `COc1cc2c(cc1-n1nc(NCCN(C)C)c3cnc(-c4cnn5cccnc45)cc31)SCC(=O)N2` [Example 38, 7-(3-((2-(dimethylamino)ethyl)amino)-6-(pyrazolo[1,5-a]pyrimidin-3-yl)-1H-pyrazolo[4,3-c]pyridin-1-yl)-6-methoxy-2H-benzo[b][1,4]thiazin-3(4H)-one] had an IC50 of 5.01 to 50.1 nM.
Under `COc1cc2sncc2cc1-n1nc(NCCN2CCOCC2)c2cnc(-c3cnn4cccnc34)cc21` [Example 39, 1-(6-methoxybenzo[d]isothiazol-5-yl)-N-(2-morpholinoethyl)-6-(pyrazolo[1,5-a]pyrimidin-3-yl)-1H-pyrazolo[4,3-c]pyridin-3-amine] stands 5.01 to 50.1 nM.
Then `COc1cc2c(cc1-n1nc(C)c3cnc(-c4cnn5cccnc45)cc31)OCCN2` [Example 40, 6-methoxy-7-(3-methyl-6-(pyrazolo[1,5-a]pyrimidin-3-yl)-1H-pyrazolo[4,3-c]pyridin-1-yl)-3,4-dihydro-2H-benzo[b][1,4]oxazine], with 5.01 to 50.1 nM; and `COc1cc2c(cc1-n1nc(C)c3cnc(-c4cnn5cccnc45)cc31)CCN2` [Example 41, 1-(6-methoxyindolin-5-yl)-3-methyl-6-(pyrazolo[1,5-a]pyrimidin-3-yl)-1H-pyrazolo[4,3-c]pyridine], with 5.01 to 50.1 nM.
Molecule `COc1cc2c(cc1-n1nc(C)c3cnc(-c4cnn5cccnc45)cc31)CCCN2` [Example 42, 7-methoxy-6-(3-methyl-6-(pyrazolo[1,5-a]pyrimidin-3-yl)-1H-pyrazolo[4,3-c]pyridin-1-yl)-1,2,3,4-tetrahydroquinoline] had an IC50 of less than 5.01 nM.
`COc1cc2c(cc1-n1nc(C(=O)NCCCN(C)C)c3cnc(-c4cnn5cccnc45)cc31)OCCN2` [Example 43, N-(3-(dimethylamino)propyl)-1-(6-methoxy-3,4-dihydro-2H-benzo[b][1,4]oxazin-7-yl)-6-(pyrazolo[1,5-a]pyrimidin-3-yl)-1H-pyrazolo[4,3-c]pyridine-3-carboxamide] gave an IC50 of 5.01 to 50.1 nM.
Under `COc1cc2c(cc1-n1nc(C(=O)NC3CN(C)C3)c3cnc(-c4cnn5cccnc45)cc31)OCCN2` [Example 44, 1-(6-methoxy-3,4-dihydro-2H-benzo[b][1,4]oxazin-7-yl)-N-(1-methylazetidin-3-yl)-6-(pyrazolo[1,5-a]pyrimidin-3-yl)-1H-pyrazolo[4,3-c]pyridine-3-carboxamide] stands 5.01 to 50.1 nM; under `COc1cc2c(cc1-n1nc(C(=O)NC[C@@H]3CN(C)CCO3)c3cnc(-c4cnn5cccnc45)cc31)OCCN2` [Example 45, (R)-1-(6-methoxy-3,4-dihydro-2H-benzo[b][1,4]oxazin-7-yl)-N-((4-methylmorpholin-2-yl)methyl)-6-(pyrazolo[1,5-a]pyrimidin-3-yl)-1H-pyrazolo[4,3-c]pyridine-3-carboxamide], 5.01 to 50.1 nM.
Then `COc1cc2c(cc1-n1nc(C(=O)NCCN3CCC(OC)CC3)c3cnc(-c4cnn5cccnc45)cc31)OCCN2` [Example 46, 1-(6-methoxy-3,4-dihydro-2H-benzo[b][1,4]oxazin-7-yl)-N-(2-(4-methoxypiperidin-1-yl)ethyl)-6-(pyrazolo[1,5-a]pyrimidin-3-yl)-1H-pyrazolo[4,3-c]pyridine-3-carboxamide], with less than 5.01 nM.
Consider `COCC1CCN(CCNC(=O)c2nn(-c3cc4c(cc3OC)NCCO4)c3cc(-c4cnn5cccnc45)ncc23)CC1` [Example 47, 1-(6-methoxy-3,4-dihydro-2H-benzo[b][1,4]oxazin-7-yl)-N-(2-(4-(methoxymethyl)piperidin-1-yl)ethyl)-6-(pyrazolo[1,5-a]pyrimidin-3-yl)-1H-pyrazolo[4,3-c]pyridine-3-carboxamide], for which the IC50 was 5.01 to 50.1 nM.
Regarding `COc1cc2c(cc1-n1nc(C(=O)NCCN3CC4(CCOCC4)C3)c3cnc(-c4cnn5cccnc45)cc31)OCCN2` [Example 48, N-(2-(7-oxa-2-azaspiro[3.5]nonan-2-yl)ethyl)-1-(6-methoxy-3,4-dihydro-2H-benzo[b][1,4]oxazin-7-yl)-6-(pyrazolo[1,5-a]pyrimidin-3-yl)-1H-pyrazolo[4,3-c]pyridine-3-carboxamide], the IC50 is less than 5.01 nM.
As for `COc1cc2c(cc1-n1nc(C(=O)NCCN3CCCC4(COC4)C3)c3cnc(-c4cnn5cccnc45)cc31)OCCN2` [Example 49, N-(2-(2-oxa-6-azaspiro[3.5]nonan-6-yl)ethyl)-1-(6-methoxy-3,4-dihydro-2H-benzo[b][1,4]oxazin-7-yl)-6-(pyrazolo[1,5-a]pyrimidin-3-yl)-1H-pyrazolo[4,3-c]pyridine-3-carboxamide], the IC50 was 5.01 to 50.1 nM.
Under `COc1cc2c(cc1-n1nc(C(=O)NCCN3C[C@H]4COC(=O)[C@H]4C3)c3cnc(-c4cnn5cccnc45)cc31)OCCN2` [Example 50, 1-(6-methoxy-3,4-dihydro-2H-benzo[b][1,4]oxazin-7-yl)-N-(2-((3aS,6aR)-1-oxotetrahydro-1H-furo[3,4-c]pyrrol-5(3H)-yl)ethyl)-6-(pyrazolo[1,5-a]pyrimidin-3-yl)-1H-pyrazolo[4,3-c]pyridine-3-carboxamide] stands 5.01 to 50.1 nM; under `COc1cc2c(cc1-n1nc(C(=O)NCCN3CCC4(CC3)COC(=O)C4)c3cnc(-c4cnn5cccnc45)cc31)OCCN2` [Example 51, 1-(6-methoxy-3,4-dihydro-2H-benzo[b][1,4]oxazin-7-yl)-N-(2-(3-oxo-2-oxa-8-azaspiro[4.5]decan-8-yl)ethyl)-6-(pyrazolo[1,5-a]pyrimidin-3-yl)-1H-pyrazolo[4,3-c]pyridine-3-carboxamide], less than 5.01 nM.
Then `COc1cc2c(cc1-n1nc(C(=O)NCCN3CCC4(CCOC4=O)CC3)c3cnc(-c4cnn5cccnc45)cc31)OCCN2` [Example 52, 1-(6-methoxy-3,4-dihydro-2H-benzo[b][1,4]oxazin-7-yl)-N-(2-(1-oxo-2-oxa-8-azaspiro[4.5]decan-8-yl)ethyl)-6-(pyrazolo[1,5-a]pyrimidin-3-yl)-1H-pyrazolo[4,3-c]pyridine-3-carboxamide], with less than 5.01 nM.
